# From patent publication US20030139332A1, “Use of matrix metalloproteinase inhibitors to mitigate nerve damage” (The Regents of the University of California, priority 2001, published 2003)
# Entries after “also recorded” stand apart in the source; their conditions may differ.
# Key:
# spinal cord injured mice = experiment: Locomotor recovery after spinal cord injury, open field BBB Locomotor Rating Scale; format: in vivo, mouse; details: over 6 weeks post injury, GM6001 N=9 vs vehicle N=4, treatment 3 hours to 3 days post injury
# Method: (§1) Adult, male mice (4-6 months of age), were anesthetized with 2.5% Avertin (0.02 ml/g bw, i.p.) and maintained at 37° C. throughout the experiment by using a warming blanket placed under the animal. […] Briefly, using aseptic techniques the spinous process and laminae of T8 were removed and a circular region of dura, approximately 2.4 mm in diameter, was exposed. After stabilization of the vertebral column, a 2 gm weight was dropped 5.0 cm onto the exposed dura. After injury, the overlying skin was closed with wound clips. Postoperative care included manual expression of each animal's bladder until recovery of reflex emptying.
# (§2) Wild type mice were subjected to spinal cord injury as described in the previous section. […] Animals were treated every 12 hours (100 mg/kg in 4% methylcellulose, i.p.), for the first 3 days post injury.
# This scale assesses 10 distinct categories that range from limb movement to tail position and involve detailed observations of joint movement, stepping, and coordination. […] Spinal cord injured animals were tested on days 1 and 3 post injury and weekly thereafter for 6 weeks. […] Positioning of the limbs and locomotion was then observed by either directly or indirectly (via the mirror) viewing the animal.
# neutrophils = experiment: Neutrophil infiltration into the lesion (chloroacetate esterase stain) after spinal cord injury; format: in vivo, mouse; details: 24 hours post injury; GM6001 N=4 vs vehicle N=4; P=0.01
# Method: Adult, male mice (4-6 months of age), were anesthetized with 2.5% Avertin (0.02 ml/g bw, i.p.) and maintained at 37° C. throughout the experiment by using a warming blanket placed under the animal. A contusive injury was performed based upon modifications of procedures originally described by Kuhn and Wrathall (1998) J. Neurotrauma 15:125-140. Briefly, using aseptic techniques the spinous process and laminae of T8 were removed and a circular region of dura, approximately 2.4 mm in diameter, was exposed. After stabilization of the vertebral column, a 2 gm weight was dropped 5.0 cm onto the exposed dura. After injury, the overlying skin was closed with wound clips. Postoperative care included manual expression of each animal's bladder until recovery of reflex emptying. […]
# The protocol was as described by the manufacturer with several exceptions. […] The number of neutrophils within each of these sections was determined from digital images, captured with a CCD camera, as described in the preceding paragraph at 40×magnification. […] Only darkly stained structures, greater than 38 μm^2 (7 μm in diameter) were counted. For the rostral and caudal sections, the numbers of neutrophils within the entire cross sections were determined and summed. For the epicenter, neutrophils were quantified within specific regions of the cross section. […]
# [1] = tested on: blood-spinal cord barrier; experiment: Blood-spinal cord barrier permeability to luciferase after spinal cord injury; format: in vivo, mouse; details: 24 hours post injury, GM6001 begun at 3 hours after injury, N=6, vs vehicle N=4, P=0.04
# Method: as §1, §2
# [2] = tested on: blood-spinal cord barrier; experiment: Blood-spinal cord barrier permeability to horseradish peroxidase (HRP) after contusive spinal cord injury; format: in vivo, mouse; details: 24 hours post injury, GM 6001 100 mg/kg i.p. from 3 hours post injury, compared to wild type; for blood-spinal cord barrier permeability to HRP at the lesion epicenter: wild type mice, every 12 hours
# Method: as §1, §2
# spinal cord white matter = experiment: Area of residual white matter at the lesion epicenter (Luxol fast blue); format: in vivo, mouse; details: 42 days post injury, GM6001 vs vehicle, P=0.01
# Method: Adult, male mice (4-6 months of age), were anesthetized with 2.5% Avertin (0.02 ml/g bw, i.p.) and maintained at 37° C. throughout the experiment by using a warming blanket placed under the animal. A contusive injury was performed based upon modifications of procedures originally described by Kuhn and Wrathall (1998) J. Neurotrauma 15:125-140. Briefly, using aseptic techniques the spinous process and laminae of T8 were removed and a circular region of dura, approximately 2.4 mm in diameter, was exposed. After stabilization of the vertebral column, a 2 gm weight was dropped 5.0 cm onto the exposed dura. After injury, the overlying skin was closed with wound clips. Postoperative care included manual expression of each animal's bladder until recovery of reflex emptying.
# Wild type mice were subjected to spinal cord injury as described in the previous section. All mice were treated with either GM 6001 (AMS Scientific, Inc., Concord, Calif. 100 mg/kg in 4% methylcellulose, i.p.), a general inhibitor of MMPs, or vehicle (4% methylcellulose, i.p.), at 3 hours post injury. […]
# The area of residual white matter at the epicenter was determined in vehicle-and drug-treated wild type mice at 42 days post injury. […] These sections were captured with a Spotcam camera mounted on a Nikon Optiphot and analyzed using Photoshop 6.0™. […] These pixels were quantified and expressed per unit area.
# [3] = tested on: MMP-9 and other gelatinases; experiment: Gelatin zymography of injured spinal cord extracts with metalloproteinase inhibitor control; format: biochemical, mouse; details: substrate gels incubated with 4 mM 1,10-phenanthroline
# Method: Samples of spinal cord, prepared from the epicenter, were quick-frozen at −80° C. Each sample was weighed and homogenized in (1:4 weight to volume) in lysis buffer containing 50 mM Tris-HCl (pH 8.0), 150 mM NaCl, 1% NP-40, 0.5% deoxycholate, 0.1% SDS. Soluble and insoluble extracts were separated by centrifugation and stored at −20° C. Equal amounts of the supernatant were analyzed by gel zymography as previously described (Herron et al., 1986) on 10% SDS-polyacrylamide gels, copolymerized with substrate (1 mg/ml gelatin). The proteins were renatured by incubation in 2.5% Triton-X100, and then incubated in substrate buffer (50 mM Tris-HCl, […]) for 24 to 36 hours at 37° C. to enable the MMP-9 and other gelatinases to cleave the gelatin. After rinsing in water, each gel was stained with Coomassie Blue for 4 hours and destained in 50% methanol. Negative staining is indicative of the location of active protease bands. After exposure to SDS during gel separation, proenzymes, present in tissue extracts, are activated without proteolytic cleavage. To inhibit MMP proteolytic activities, substrate gels were incubated in substrate buffer with 4 mM 1,10-phenanthroline (Sigma, St. Louis, Mo.), as described (Adler et al. 1990) Development 110:211-220). This control ensured that the measured activity corresponded to matrix metalloproteinase activity. […]
compound,measurement,setting,value
CNC(=O)[C@H](Cc1c[nH]c2ccccc12)NC(=O)[C@@H](CC(=O)NO)CC(C)C [GM6001],"locomotor recovery (BBB Locomotor Rating Scale, 21 point scale)",spinal cord injured mice,greater locomotor
same,"locomotor recovery (BBB Locomotor Rating Scale, 21 point scale)",spinal cord injured mice; listed as GM 6001,significant locomotor recovery as early as 3 days post injury and weekly thereafter
same,numbers of neutrophils within the lesion epicenter,neutrophils,significant reduction in the numbers of neutrophils
same,abnormal barrier permeability to luciferase in the epicenter,[1],significant reduction in barrier permeability
same,abnormal barrier permeability to luciferase in the epicenter,[1]; listed as GM 6001,significantly attenuated
same,axial distribution of abnormal barrier permeability to HRP (segments rostral and caudal to the lesion),[2],not observed
same,blood-spinal cord barrier permeability to HRP at the lesion epicenter,[2]; 100 mg/kg,marked increase in permeability to HRP in the wild type mice as compared to
same,blood-spinal cord barrier permeability to HRP at the lesion epicenter,"[2]; listed as GM 6001, 100 mg/kg",only light patches of HRP reaction product in the epicenter
same,area of residual white matter at the lesion epicenter,spinal cord white matter,significantly greater preservation of white matter
same,area of residual white matter at the lesion epicenter,spinal cord white matter; listed as GM 6001,significant preservation of white matter
"c1cnc2c(c1)ccc1cccnc12 [1,10 phenanthroline, 1,10-phenanthroline]",gelatinolytic activity (inactive and active forms of MMP-9 and MMP-2) in gelatin zymography,[3],completely blocked the gelatinolytic activity; also recorded: completely blocks the inactive and active forms
